The experiment deals with recombinant USP30 (amino acids 57-517 of the human sequence) (Homo sapiens (Human), UniProt Q70CQ3). The experiment can be described thus: In vitro USP30 biochemical assay (Ubiquitin-Rhodamine substrate). To be noted: fluorescence. On the procedure: In vitro biochemical assay to establish the potency of compounds for USP30 inhibition: a 384-well plate assay using a fluorophore tagged substrate of USP30 was used for in vitro screening of compounds. Each compound was tested at
Sequence of recombinant USP30 (amino acids 57-517 of the human sequence) (Q70CQ3 57-517): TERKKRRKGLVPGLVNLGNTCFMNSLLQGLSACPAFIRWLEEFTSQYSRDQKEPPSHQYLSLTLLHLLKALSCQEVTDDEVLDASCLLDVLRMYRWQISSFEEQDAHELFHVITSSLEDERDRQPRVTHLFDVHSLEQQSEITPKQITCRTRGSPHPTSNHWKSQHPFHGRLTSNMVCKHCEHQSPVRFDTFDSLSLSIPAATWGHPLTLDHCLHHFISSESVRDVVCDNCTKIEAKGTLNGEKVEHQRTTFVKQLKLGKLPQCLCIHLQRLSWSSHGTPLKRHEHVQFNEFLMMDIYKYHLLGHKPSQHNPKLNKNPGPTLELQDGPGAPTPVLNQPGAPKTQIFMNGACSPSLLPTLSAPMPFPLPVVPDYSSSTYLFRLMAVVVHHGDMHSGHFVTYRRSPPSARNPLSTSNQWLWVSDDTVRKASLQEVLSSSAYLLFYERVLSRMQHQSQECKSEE
10 different concentrations (0.5 to 10,000 nM) in duplicate wells. […] Data were analyzed using Graph Pad Prism software with a four-parameter (floating slope) fit to log concentration data to determine IC50s.

Setting [1] is: 1.5 nM recombinant USP30, 25 nM Ubiquitin-Rhodamine.
Setting [2] is: […] recombinant USP30, 25 nM Ubiquitin-Rhodamine.

SMILES strings stand for the structures.

One may read the IC50 as the point on the concentration scale where inhibition reaches its midpoint. Regarding `CC(C)(CO)NS(=O)(=O)c1ccc(NC(=O)[C@@H]2C[C@@H](C3CCCCC3)CN2C(=O)c2ccc(F)cc2)cc1` [Compound I-254], under setting [1], the IC50 lay within 1 to 10 µM.
In the case of `CC(C)(C)NS(=O)(=O)c1ccc(NC(=O)[C@@H]2C[C@H](O)CN2C(=O)c2ccc(F)cc2)cc1` [Compound I-279], under setting [1], the half-inhibitory concentration (IC50) is 1 to 10 µM.
On the same count and under the same terms, the figure for `CC(C)(NS(=O)(=O)c1ccc(NC(=O)[C@H](CC2CCOCC2)NC(=O)c2ccc(F)cn2)cc1)C(F)(F)F` [Compound I-207] is 0.05 to 1 µM.
`CC(=O)N1CCC(NC(=O)[C@H](Cc2ccccc2)NC(=O)c2ccc(F)cc2)CC1` [Compound I-114]: under setting [2], the IC50 was over 10 µM.
In the case of `CC(C)C[C@@H](NC(=O)c1ccc(F)cc1)C(=O)Nc1ccc(S(=O)(=O)NC(C)(C)CCO)cc1` [Compound I-21, (R)-4-fluoro-N-(1-((4-(N-(4-hydroxy-2-methylbutan-2-yl)sulfamoyl)phenyl)amino)-4-methyl-1-oxopentan-2-yl)benzamide], under setting [2], the IC50 is over 10 µM.
For `CN1CCC(C[C@H](NC(=O)c2ccc(F)cc2)C(=O)Nc2ccc(S(=O)(=O)NC(C)(C)CF)cc2)CC1` [Compound I-127], the IC50 under setting [1] lay in the range of 0.05 to 1 µM.
Still for that read-out and setting: the figure for `N#CN1CC(NC(=O)[C@H](Cc2ccccc2)NC(=O)c2ccc(F)cc2)C1` [Compound I-241] is 0.05 to 1 µM.
As to `N#CCN1CC[C@@H](NC(=O)[C@H](Cc2ccccc2)NC(=O)c2ccc(F)cc2)C1` [Compound I-154], the IC50 under setting [2] was over 10 µM.
On to `O=C(N[C@@H](Cc1ccccc1)C(=O)Nc1ccc(S(=O)(=O)NCc2nnc[nH]2)cc1)c1ccc(F)cc1` [Compound I-232], for which, under setting [1], the IC50 was in the range of 1 to 10 µM.
In the case of `CO[C@H]1C[C@@H](C(=O)Nc2ccc(S(=O)(=O)NC3COC3)cc2)N(C(=O)c2ccc(F)cc2)C1` [Compound I-289], under setting [2], the IC50 is over 10 µM.
As to `COc1cc(NC(=O)[C@@H]2C[C@@H](C3CCCCC3)CN2C(=O)c2ccc(F)cc2)cnc1S(=O)(=O)NC(C)(C)CO` [Compound I-256], under setting [2], the IC50 was over 10 µM.
In the case of `COc1cc(NC(=O)[C@@H]2C[C@@H](c3ccccc3)CN2C(=O)c2ccc(F)cc2)ccc1S(=O)(=O)NC1COC1` [Compound I-265], the IC50 under setting [1] lay in the range of 0.05 to 1 µM.
Take `CN1CC[C@@H](NC(=O)[C@H](Cc2ccccc2)NC(=O)c2ccc(F)cc2)C1` [Compound I-152]: the IC50 under setting [2] was over 10 µM.
For the compound `CC(C)(C)NS(=O)(=O)c1cccc2c(NC(=O)[C@H](Cc3ccccc3)NC(=O)N3CCOCC3)cccc12` [Compound I-195], the IC50 under setting [1] is 0.05 to 1 µM.
Regarding `COc1cc(NC(=O)[C@H](Cc2ccccc2)NC(=O)c2ccc(F)cc2)c(Cl)cc1S(=O)(=O)NC(C)(CO)CO` [Compound I-142], the IC50 under setting [1] lay in the range of 1 to 10 µM.
Still for that read-out and setting: for `O=C(N[C@@H](Cc1ccccc1)C(=O)Nc1ccc(S(=O)(=O)NCc2ncccn2)cc1)c1ccc(F)cc1` [Compound I-228] the value was 0.05 to 1 µM.
With `CC(C)(C)NS(=O)(=O)c1ccc(NC(=O)C2CCCCN2C(=O)c2ccc(F)cc2)cc1` (centres unmarked) [Compound I-245], the IC50 under setting [2] is over 10 µM.
Same read-out and setting: the figure for `CC(C)(C)NS(=O)(=O)c1ccc(NC(=O)[C@H](Cc2ccccc2)NC(=O)c2ccc(F)cc2)cc1O` [Compound I-63] is under 0.05 µM.
With `COc1cc(NC(=O)[C@H](CC2CCN(C)CC2)NC(=O)c2ccc(F)cc2)cnc1S(=O)(=O)NC(C)(C)C` [Compound I-80], the IC50 under setting [1] lay in the range of 0.05 to 1 µM.
Consider `CC(C)C[C@H](NC(=O)c1ccc(F)cc1)[C@@H](O)CNc1ccc(S(=O)(=O)NC(C)(C)C)cc1` [Compound I-220], for which the IC50 under setting [2] was over 10 µM.
As for `O=C(Nc1ccc(S(=O)(=O)N[C@@H]2CCOC2)nc1)[C@@H]1C[C@@H](c2ccccc2)CN1C(=O)c1ccc(F)cc1` [Compound I-270], the IC50 under setting [1] lay in the range of 1 to 10 µM.
Same read-out and setting: for `CN1CCC(C[C@H](NC(=O)c2ccc(F)nc2)C(=O)Nc2ccc(S(=O)(=O)NC(C)(C)C)cc2)CC1` [Compound I-183] the value was 0.05 to 1 µM.
In the case of `CC(C)(C)NS(=O)(=O)c1cccc2c(NC(=O)[C@H](CC3CCOCC3)NC(=O)c3ccc(F)cc3)cccc12` [Compound I-8, (S)—N-(1-((5-(N-(tert-butyl)sulfamoyl)naphthalen-1-yl)amino)-1-oxo-3-(tetrahydro-2H-pyran-4-yl)propan-2-yl)-4-fluorobenzamide], the concentration for half-maximal inhibition (IC50) under setting [2] is under 0.05 µM.
On to `CC(C)(C)NS(=O)(=O)c1ccc(NC(=O)C2CC(C3CCCCC3)CN2C(=O)c2ccc(F)cc2)cc1` (centres unmarked) [Compound I-292], for which, under setting [1], the IC50 lay within 0.05 to 1 µM.
On the same count and under the same terms, the figure for `CC(C)C[C@H](NC(=O)c1ccccc1)C(=O)NC1CN(C(=O)OCc2ccccc2)C1` [Compound I-247] is 1 to 10 µM.
Same read-out and setting: the figure for `O=C(N[C@@H](CC1CCOCC1)C(=O)Nc1ccc(S(=O)(=O)NC2COC2)nc1)c1ccc(F)cc1` [Compound I-5] is 0.05 to 1 µM.
With `O=C(Nc1ccc(S(=O)(=O)N[C@@H]2CCOC2)cc1)[C@@H]1C[C@H](O)CN1C(=O)c1ccc(F)cc1` [Compound I-282], the IC50 under setting [2] was over 10 µM.
On to `COc1cc(NC(=O)[C@H](CC2CCOCC2)NC(=O)c2ccc(F)cc2)cnc1S(=O)(=O)NC(C)(C)CO` [Compound I-76], for which the IC50 under setting [1] is 0.05 to 1 µM.
For `COCCC(C)(C)NS(=O)(=O)c1ccc(NC(=O)[C@H](CC2CCOCC2)NC(=O)c2ccc(F)cc2)cc1` [Compound I-7], the concentration for half-maximal inhibition (IC50) under setting [1] is 0.05 to 1 µM.
Consider `CC(C)(C)NS(=O)(=O)c1ccc(NC(=O)[C@H](CC2CCOCC2)NC(=O)c2ccc(F)cc2)cn1` [Compound I-4], for which, under setting [2], the IC50 was under 0.05 µM.
Turning to `COc1cc(NC(=O)[C@@H]2C[C@@H](C3CCCCC3)CN2C(=O)c2ccc(F)cc2)cnc1S(=O)(=O)NC(C)(C)C` [Compound I-255], the IC50 under setting [1] lay within 1 to 10 µM.
For `N#CN1CCC(NC(=O)[C@H](Cc2ccccc2)NC(=O)c2ccc(F)cc2)CC1` [Compound I-124], under setting [2], the IC50 is over 10 µM.
Consider `CC(C)(C)NS(=O)(=O)c1ccc(NC(=O)C(Cc2ccccc2)c2nnc(-c3ccccc3)[nH]2)cc1` (centres unmarked) [Compound I-89], for which, under setting [2], the IC50 was over 10 µM.
`CC(C)(CO)NS(=O)(=O)c1ccc(NC(=O)[C@H](CO)NC(=O)c2ccc(F)cc2)cc1` [Compound I-35]: the concentration for half-maximal inhibition (IC50) under setting [1] was in the range of 1 to 10 µM.
The same measure, in the same setting: the figure for `O=C(N[C@@H](CC1CCNCC1)C(=O)Nc1ccc(S(=O)(=O)NC2CCOCC2)nc1)c1ccc(F)cc1` [Compound I-144] is 0.05 to 1 µM.
For the compound `O=C(Nc1ccc(S(=O)(=O)NC2COC2)cc1)[C@@H]1C[C@H](O)CN1C(=O)c1ccc(F)cc1` [Compound I-281], the IC50 under setting [2] is over 10 µM.
Consider `CN(C)CC[C@H](NC(=O)c1ccc(F)cc1)C(=O)Nc1ccc(S(=O)(=O)NC(C)(C)C)cc1` [Compound I-240], for which the IC50 under setting [1] was 0.05 to 1 µM.
`CC(C)(C)NS(=O)(=O)c1ccc(NC(=O)[C@@H]2C[C@@H](c3ccccc3)CN2C(=O)c2ccc(F)cc2)cc1` [Compound I-49, (2S,4S)—N-(4-(N-(tert-butyl)sulfamoyl)phenyl)-1-(4-fluorobenzoyl)-4-phenylpyrrolidine-2-carboxamide]: the IC50 under setting [1] lay in the range of 0.05 to 1 µM.
On the same count and under the same terms, the figure for `CN1CCN(C(=O)N[C@@H](Cc2ccccc2)C(=O)Nc2ccc(S(=O)(=O)NC(C)(C)C)cc2)CC1` [Compound I-180] is 1 to 10 µM.
For `CC(C)(C)NS(=O)(=O)c1ccc(NC(=O)[C@@H]2C[C@@H](O)CN2C(=O)c2ccc(F)cc2)cc1` [Compound I-264], the IC50 under setting [2] was over 10 µM.
With `O=C(Nc1ccc(S(=O)(=O)NC2COC2)nc1)[C@@H]1C[C@@H](c2ccccc2)CN1C(=O)c1ccc(F)cc1` [Compound I-271], under setting [1], the IC50 was 1 to 10 µM.
Same read-out and setting: the figure for `CC(C)(C)NS(=O)(=O)c1ccc(NC(=O)[C@H](CC2CCNCC2)NC(=O)N2CCOCC2)cc1` [Compound I-215] is 1 to 10 µM.
The same measure, in the same setting: the figure for `O=C(N[C@@H](CC1CCNCC1)C(=O)Nc1ccc(S(=O)(=O)N[C@@H]2CCOC2)nc1)c1ccc(F)cc1` [Compound I-108] is 0.05 to 1 µM.
In the case of `CN1CCC(C[C@H](NC(=O)N2CCN(C)CC2)C(=O)Nc2ccc(S(=O)(=O)NC(C)(C)C)cc2)CC1` [Compound I-218], under setting [2], the IC50 was over 10 µM.
Regarding `CC(C)(CO)NS(=O)(=O)c1ccc(NC(=O)[C@H](CCO)NC(=O)c2ccc(F)cc2)cc1` [Compound I-29], the IC50 under setting [1] fell in the range of 1 to 10 µM.
Still for that read-out and setting: the figure for `Cn1nccc1CNS(=O)(=O)c1ccc(NC(=O)[C@H](CC2CCNCC2)NC(=O)c2ccc(F)cc2)cc1` [Compound I-224] is 0.05 to 1 µM.
On the same count and under the same terms, for `CN1CCC(C[C@H](NC(=O)c2ccc(F)cc2)[C@@H](O)CNc2ccc(S(=O)(=O)NC(C)(C)C)cc2)CC1` [Compound I-234] the value was 1 to 10 µM; for `CC(C)(C)NS(=O)(=O)c1ccc(NC(=O)[C@H](Cc2ccccc2)NC(=O)N2CC3(COC3)C2)cc1` [Compound I-179], 1 to 10 µM; for `CN1CCC(C[C@H](NC(=O)N2CCOCC2)C(=O)Nc2ccc(S(=O)(=O)NC(C)(C)C)cc2)CC1` [Compound I-217], 1 to 10 µM.
The same measure, in the same setting: for `CC(C)(C)NS(=O)(=O)c1ccc(NC(=O)[C@@H]2C[C@H](c3ccccc3)CN2C(=O)c2ccc(F)cc2)cc1` [Compound I-283] the value was 0.05 to 1 µM.
In the case of `O=C(N[C@@H](CC1CCOCC1)C(=O)Nc1cccc2c(S(=O)(=O)NC3COC3)cccc12)c1ccc(F)cc1` [Compound I-10], under setting [1], the IC50 lay in the range of 1 to 10 µM.
Same read-out and setting: the figure for `CC(C)(C)NS(=O)(=O)c1ccc(NC(=O)[C@@H]2C[C@@H](C3CCCCC3)CN2C(=O)c2ccc(F)cc2)cn1` [Compound I-260] is 0.05 to 1 µM; for `CC(C)C[C@H](NC(=O)c1ccc(F)cc1)C(=O)Nc1ccc(S(=O)(=O)NC(C)(C)C(F)(F)F)cc1` [Compound I-221] it is 0.05 to 1 µM; for `COc1cc(NC(=O)[C@H](CC2CCOCC2)NC(=O)c2ccc(F)cc2)ccc1S(=O)(=O)NC1CCOCC1` [Compound I-134] it is 0.05 to 1 µM.
Turning to `CC(C)(C)C[C@H](NC(=O)c1ccc(F)cc1)C(=O)Nc1ccc(S(=O)(=O)NC(C)(C)C)cc1` [Compound I-25], under setting [1], the IC50 lay within 0.05 to 1 µM.
Turning to `COC[C@H](NC(=O)c1ccc(F)cc1)C(=O)Nc1ccc(S(=O)(=O)NC(C)(C)CN2CCOCC2)cc1` [Compound I-33], under setting [1], the IC50 is 1 to 10 µM.
